Assay results from US6162875A, “Low nitrosamine systems for rubber vulcanization” (Robinson Brothers Limited, priority 1992, dated 2000).

What was measured:
[1] = tested on: bacterial strains TA 1535, TA 1537, TA 1538, TA 98 and TA 100; test: Preliminary test for toxicity to the bacterial strains (Ames test); conditions: for precipitates observed: 5000 μg dose, all strains
[2] = tested on: bacterial strains TA 1535, TA 1537, TA 1538, TA 98 and TA 100; test: Ames test for mutagenicity, revertant colony counts; conditions: 50, 150, 500, 1500, 5000 μg/plate, with and without metabolic activation, five strains

| Compound | precipitates observed [1] | toxicity to the bacterial strains ([1]; doses up to and including 5000 μg/plate) | increase of revertant colony counts over control values [2] | mutagenic to TA 100 (TA 100) | mutagenic to TA 1535 (TA 1535) |
| --- | --- | --- | --- | --- | --- |
| O=NN(Cc1ccccc1)Cc1ccccc1 [N-nitrosodibenzylamine] | precipitates were observed | non-toxic | no increase of revertant colony counts over control values | – | – |
| CN(C)N=O [dimethylnitrosamine] | – | – | – | mutagenic | mutagenic |
| N-nitrosodiisononylamine | – | – | no increase of revertant colony counts over control values | – | – |
| zinc diisononyldithiocarbamate [Example 1] | precipitates were observed | – | no increase of revertant colony counts over control values | – | – |
